The values that follow come from publication PMC11050443, “Discovery of Strong 3-Nitro-2-Phenyl-2H-Chromene Analogues as Antitrypanosomal Agents and Inhibitors of Trypanosoma cruzi Glucokinase” (International Journal of Molecular Sciences, 2024).

The subject of one data set is TcGlcK. Also on record: method as in PMID 31133533. To be noted: earlier HTS campaign of 13,040 compounds; cited from earlier work.
Data set [1] has as its system T. cruzi (Tulahuen strain) infective form co-cultured in NIH-3T3 fibroblasts. In words: In vitro T. cruzi biological assay (β-galactosidase/CPRG). Format: cell-based, Trypanosoma cruzi. To be noted: for IC50: Tulahuen strain infective form growth inhibition co-cultured in NIH-3T3 fibroblasts, 4 days, N = 3; for T. cruzi growth inhibition (in words): efficacy in IC50. The method, then: General methods for the preparation of in vitro cell cultures involving T. cruzi parasites and mammalian cells along with the exposure to inhibitors has previously been described by Andriani and colleagues. T. cruzi (Tulahuen strain) that expresses β-galactosidase was harvested by centrifugation at 2500 rpm for 7 min. Parasites were rinsed twice with DMEM lacking phenol red and supplemented with 2% fetal bovine serum (FBS) and 1% penicillin—streptomycin—L-glutamine (PSG); the final concentrations of the PSG components were 100 U/mL penicillin, 0.1 mg/mL streptomycin, and 0.292 mg/mL L-glutamine. It was necessary to exclude phenol red since it interferes with the absorbance reading at λ = 590 nm. The parasites were centrifuged again for 7 min at 2500 rpm and the 50 mL tubes were carefully removed from the centrifuge. The tubes were placed on a rack with an incubator so that the trypomastigotes would move out of the pellet in a timeframe of 3–5 h. During this period, 100 μL of NIH-3T3 cells (50,000 cells) were plated per well in a transparent, clear, flat-bottom, and sterile 96-well microplate. This plate was placed in an incubator for 3 h at 37 °C to allow the cells to attach. The 3-nitro-2-phenyl-2H-chromene compounds (inhibitors) that were prepared as 10.0 mM stock solutions in 100% DMSO were thawed from −80 °C to room temperature. The compound solutions were diluted to their desired working concentrations, which ranged from 0.0781–10.0 μM. This was accomplished by serial dilution using a 2-fold dilution. A total of 100 μL of parasites was added to each well, which contained 50,000 trypomastigotes, and were incubated for 4 days. Using a multichannel pipette, 50.0 μL of the substrate solution [500 μM CPRG in phosphate buffered saline supplemented with 0.5% detergent NP-40] was added to each well of the 96-well microplate. The plate was placed into an incubator for 4 h followed by measuring absorbance readings at λ = 590 nm using a Victor Nivo multimode microplate reader (PerkinElmer, Inc.; Shelton, CT, USA). All measurements were performed in triplicate; absorbance values were proportional to parasite cell viability. IC50 determinations for percent growth inhibition were processed using GraphPad Prism 10.0. Amphotericin B was used as a positive control, the final solution concentration of which was 4.0 μM (prepared as a 270 μM stock solution). Four control conditions were carried out, as follows: (a) NIH-3T3 cells and parasites, (b) NIH-3T3 cells without parasites, (c) NIH-3T3 cells, parasites, and 4.0 μM amphotericin B, and (d) the medium alone.

A further data set deals with NIH-3T3 fibroblasts. In words: In vitro cytotoxicity assay of mammalian NIH-3T3 fibroblasts (Alamar blue). Format: cell-based. Conditions: NIH-3T3 fibroblast growth inhibition, host cell toxicity; 4 days; N = 3. As for the experimental part: The in vitro cell culturing of mammalian NIH-3T3 fibroblasts following treatment with inhibitors to assess for cytotoxicity has previously been described. DMEM lacking phenol red and supplemented with 2% FBS and 1% PSG was warmed up. NIH-3T3 cells were trypsinized, as described in the cell culture protocol. When cells became detached, they were harvested in DMEM lacking phenol red and including 2% FBS and 1% PSG. The cells were centrifuged at 1000 rpm for 5 min, the medium was discarded, and the cells were resuspended in fresh DMEM lacking phenol red and including 2% FBS and 1% PSG. The cells were centrifuged at 1000 rpm for 5 min, resuspended in the medium, counted, and diluted to 500,000 cells/mL. Dilution was accomplished by transferring the stock number of cells into a sterile basin and 100 μL of cells was added to each well of a transparent, sterile, flat-bottom, 96-well microplate (50,000 cells/well) using a multichannel pipette. The plate was placed into the incubator for 3 h to allow cells to attach. The 3-nitro-2-phenyl-2H-chromene compounds were thawed from −80 °C to room temperature. The compounds were prepared as 10.0 mM stock solutions in 100% DMSO. A volume of 2.0 μL of a given compound plus a volume of 98.0 μL of fresh media were both added to a well in the first row of the 96-well microplate; this was performed for each compound to be tested. The solutions were mixed with a micropipette, followed by the transfer of 100 μL to the next row and repeated. The compound solutions ranged from 0.0139–30.3 μM and this was accomplished by serial dilution using a 3-fold dilution. After incubation for 4 days, 10.0 μL of Alamar blue was added to each well. Absorbance readings were measured using a Victor Nivo multimode microplate reader (PerkinElmer, Inc.; Shelton, CT, USA) at λ = 590 nm. All measurements were performed in triplicate and TC50 determinations for percent growth inhibition were carried out using GraphPad Prism 10.0. The final volume per well of cells and a given compound was 100 μL and this volume became 110 μL after the addition of Alamar blue. The detergent SDS was used as a positive control and its final solution concentration was 0.1%. Three controls were carried out, as follows: (a) NIH-3T3 cells alone, (b) perished NIH-3T3 cells (NIH-3T3 cells in the presence of 0.1% SDS), and (c) the medium alone.
In general terms: Alamar Blue is a resazurin reagent that responds to reducing activity.

[2] abbreviates: Trypanosoma cruzi, TULAHUEN, NIH3T3, 96 h.

SMILES strings stand for the structures. Several values for one entry are separate records, joined by “and”; a condition that tells them apart may be missing. Equal values may be shown once.

As to `CCOc1ccc(C2Oc3ccc(Br)cc3C=C2[N+](=O)[O-])cc1OC` (stereo not shown) [Compound 1, 6-Bromo-2-(4-ethoxy-3-methoxyphenyl)-3-nitro-2H -chromene], the IC50 (in general, the concentration that gives 50% inhibition) is 6100 nM with TcGlcK, under 2000 nM in data set [1] (setting [2]) and 1490 ± 70 nM in data set [1]. In the data set on NIH-3T3 fibroblasts, the “NIH-3T3 TC50” value worked out at 16000 ± 1840 nM.
Turning to `CCOc1ccc(C2Oc3ccc(Br)cc3C=C2[N+](=O)[O-])cc1OCC` (stereo not shown) [Compound 2, 6-Bromo-2-(3,4-diethoxyphenyl)-3-nitro-2H -chromene], the midpoint of inhibition in data set [1] (setting [2]), the IC50, lay at 1440 ± 70 nM.
For the molecule `COc1ccc(C2Oc3c(cc(Br)cc3OC)C=C2[N+](=O)[O-])cc1OC` (stereo not shown) [Compound 3, 6-Bromo-2-(3,4-dimethoxyphenyl)-8-methoxy-3-nitro-2H -chromene], the midpoint of inhibition in data set [1] (setting [2]), the IC50, lay at 960 ± 20 nM. In the data set with NIH-3T3 fibroblasts, the “NIH-3T3 TC50” value was found to be 17500 ± 1900 nM.
As to `COc1ccc(C2Oc3ccc(Br)cc3C=C2[N+](=O)[O-])cc1OC` (stereo not shown) [Compound 4, 6-Bromo-2-(3,4-dimethoxyphenyl)-3-nitro-2H -chromene], the half-maximal inhibitory concentration (IC50) in data set [1] (setting [2]) was under 2000 nM; in data set [1], 1310 ± 150 nM. The “NIH-3T3 TC50” value in the data set with NIH-3T3 fibroblasts is 16400 ± 1910 nM.
In data set [1] (setting [2]), `COc1ccc(C2Oc3c(Br)cc(Br)cc3C=C2[N+](=O)[O-])cc1OC` (stereo not shown) [Compound 5, 6,8-Dibromo-2-(3,4-dimethoxyphenyl)-3-nitro-2H -chromene] showed an IC50 of 640 ± 230 nM.
Regarding `CCOc1ccc(C2Oc3c(Br)cc(Br)cc3C=C2[N+](=O)[O-])cc1OC` (stereo not shown) [Compound 6, 6,8-Dibromo-2-(4-ethoxy-3-methoxyphenyl)-3-nitro-2H -chromene], the IC50 in data set [1] (setting [2]) was at least 2000 nM; in data set [1], 2560 ± 260 nM. For the same molecule, the “NIH-3T3 TC50” value in the data set with NIH-3T3 fibroblasts stood at 18100 ± 240 nM.
`O=[N+]([O-])C1=Cc2cc(Br)cc(Br)c2OC1c1c(Cl)cccc1Cl` (stereo not shown) [Compound 7, 2-(2,6-Dichlorophenyl)-6,8-dibromo-3-nitro-2H -chromene]: the IC50 in data set [1] (setting [2]) was found to be 640 ± 20 nM. Besides, the “T. cruzi growth inhibition (in words)” value in data set [1] is given as “nanomolar efficacy”. In the data set on NIH-3T3 fibroblasts, the “NIH-3T3 TC50” value is 11900 ± 510 nM.
In data set [1] (setting [2]), `CCOc1ccc(C2Oc3c(cc(Br)cc3OC)C=C2[N+](=O)[O-])cc1OC` (stereo not shown) [Compound 8, 6-Bromo-2-(4-ethoxy-3-methoxyphenyl)-8-methoxy-3-nitro-2H -chromene] gave a half-maximal inhibitory concentration (IC50) of 1850 ± 150 nM.
Turning to `CCOc1ccc(C2Oc3c(Cl)cc(Cl)cc3C=C2[N+](=O)[O-])cc1OCC` (stereo not shown) [Compound 9, 6,8-Dichloro-2-(3,4-diethoxyphenyl)-3-nitro-2H -chromene], the IC50 in the data set on TcGlcK was 4800 nM. Further, in the data set on NIH-3T3 fibroblasts, the “NIH-3T3 TC50” value worked out at 17500 ± 1600 nM.
The molecule `CCOc1ccc(C2Oc3ccccc3C=C2[N+](=O)[O-])cc1OCC` (stereo not shown) [Compound 10, 2-(3,4-Diethoxyphenyl)-3-nitro-2H -chromene] gave an IC50 in data set [1] (setting [2]) of 2560 ± 260 nM. Further, the “NIH-3T3 TC50” value with NIH-3T3 fibroblasts was 9450 ± 2200 nM.
`O=[N+]([O-])C1=Cc2cc(Br)ccc2OC1c1ccccc1Cl` (stereo not shown) [Compound 11, 6-Bromo-2-(2-chlorophenyl)-3-nitro-2H -chromene]: the “T. cruzi growth inhibition (in words)” value in data set [1] was “nanomolar efficacy”. Besides, the “NIH-3T3 TC50” value with NIH-3T3 fibroblasts is 4120 nM and 4120 ± 1950 nM.
Molecule `O=[N+]([O-])C1=Cc2ccccc2OC1c1c(Cl)cccc1Cl` (stereo not shown) [Compound 13, 2-(2,6-Dichlorophenyl)-3-nitro-2H -chromene] displayed an IC50 in data set [1] (setting [2]) of 3080 ± 80 nM.
